From patent US11661400B2, “NADPH oxidase inhibitors, pharmaceutical composition comprising the same, and application thereof” (TAIWANJ PHARMACEUTICALS CO., LTD., priority 2018, dated 2023)

Experiments:
NOX1 = target: T1, NOX1 (Homo sapiens, UniProt Q9Y5S8); experiment: NOX1 HT29 cell-based assay (luminol/HRP luminescence); settings: HT29 cells, DMSO = 0%, GKT137831 = 100%; for inhibition at 0.1 µM / inhibition at 1 µM: HT-29
T1 construct: endogenous in cells; host or cells: HT29
T1 sequence (Q9Y5S8 1-564): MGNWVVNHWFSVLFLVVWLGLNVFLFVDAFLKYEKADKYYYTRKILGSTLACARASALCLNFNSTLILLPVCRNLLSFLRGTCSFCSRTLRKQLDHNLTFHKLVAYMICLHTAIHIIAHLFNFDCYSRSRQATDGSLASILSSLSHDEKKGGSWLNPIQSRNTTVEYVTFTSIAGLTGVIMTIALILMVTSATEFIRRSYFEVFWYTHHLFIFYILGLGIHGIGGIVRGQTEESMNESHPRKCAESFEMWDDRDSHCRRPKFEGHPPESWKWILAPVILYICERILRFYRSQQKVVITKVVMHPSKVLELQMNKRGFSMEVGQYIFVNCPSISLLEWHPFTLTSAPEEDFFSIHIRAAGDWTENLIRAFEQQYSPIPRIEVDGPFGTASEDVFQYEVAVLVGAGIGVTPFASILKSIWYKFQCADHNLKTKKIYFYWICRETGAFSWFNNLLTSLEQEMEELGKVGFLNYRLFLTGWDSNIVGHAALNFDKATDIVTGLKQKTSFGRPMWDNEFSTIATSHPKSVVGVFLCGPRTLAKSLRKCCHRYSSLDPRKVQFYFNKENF
T1 sequence (P13498 2-195 partner limits assumed): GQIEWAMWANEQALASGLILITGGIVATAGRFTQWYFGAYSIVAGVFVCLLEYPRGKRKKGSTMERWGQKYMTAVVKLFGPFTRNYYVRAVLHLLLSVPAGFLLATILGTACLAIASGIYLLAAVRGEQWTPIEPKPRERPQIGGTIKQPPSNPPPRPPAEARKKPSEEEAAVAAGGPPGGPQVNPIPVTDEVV
Procedure: NOX1 HT29 Cell-Based Assay:
HT29 cells were cultured in T75 flask (Corning) and when 70-80% confluence was reached, cells were trypsinized, harvested in HBSS and counted. 1-2×10^5 cells were dispensed into individual wells in 70 μl final volume (96-well plates, white Corning). Cells were treated for 30-60 mins at 37° C. with 10 μl of GKT137831, DMSO and test compounds from their respective assay plates. This will correspond to a final concentration of 100 nM, 1000 nM GKT137831 or test compounds, and 0.1% DMSO. 20 μL of a mixture containing 100 μM luminol plus 0.4 units of HRP (final concentration) was added. Luminescence was quantified using a SpectraMax i3 Multiplate reader (Molecular Devices, Sunnyvale, Calif., USA). As designed, compounds that inhibit NOX1 activity will reduce cellular ROS production, leading to reduced probe-ROS interactions and reduced well luminescence. Compounds were tested in duplicate at a concentration of 100 nM and 1000 nM. DMSO and GKT137831 wells were applied as negative and positive controls, and the activities measured were set to 0% and 100%, respectively.

NOX4 = target: T2, NOX4 (Homo sapiens, UniProt Q9NPH5); experiment: NOX4 HEK293 overexpression cell-based assay (Amplex Red H2O2); settings: HEK293 cells stably overexpressing NOX4, DMSO = 0, GKT137831 = 100; for inhibition at 1 µM: HEK293, 1000 nM; for inhibition at 0.1 µM: HEK293, 100 nM
T2 construct: expressed in transfected cells
T2 sequence (Q9NPH5 1-578): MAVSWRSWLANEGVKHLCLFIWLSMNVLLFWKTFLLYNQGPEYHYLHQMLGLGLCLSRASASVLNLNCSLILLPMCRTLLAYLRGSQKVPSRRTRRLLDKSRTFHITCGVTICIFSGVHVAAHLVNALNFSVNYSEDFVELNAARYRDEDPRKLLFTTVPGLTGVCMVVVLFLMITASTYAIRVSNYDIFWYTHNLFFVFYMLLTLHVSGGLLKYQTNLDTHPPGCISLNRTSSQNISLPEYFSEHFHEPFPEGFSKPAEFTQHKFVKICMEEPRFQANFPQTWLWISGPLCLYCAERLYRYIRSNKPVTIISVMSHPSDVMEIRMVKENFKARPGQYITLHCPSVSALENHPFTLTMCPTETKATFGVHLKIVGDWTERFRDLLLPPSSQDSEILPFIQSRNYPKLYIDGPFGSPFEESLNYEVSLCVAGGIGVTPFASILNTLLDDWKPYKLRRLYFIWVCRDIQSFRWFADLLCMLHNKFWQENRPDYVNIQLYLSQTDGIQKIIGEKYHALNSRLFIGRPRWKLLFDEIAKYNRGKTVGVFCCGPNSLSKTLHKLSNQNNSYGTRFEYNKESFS
T2 sequence (P13498 2-195 partner limits assumed): T1 sequence (P13498 2-195 partner limits assumed)
Procedure: Extracellular H2O2 measurement using Amplex™ Red Hydrogen Peroxide/Peroxidase Assay Kit (Catalog number: A22188; Invitrogen, Carlsbad, Calif., USA) was used to detect extracellular H2O2 release by HEK293 cells stably overexpressing NOX4. NOX4 clonal cells in log-phase growth were trypsinized, washed, and dispersed thoroughly. Following trypsinization, the cells (3×10^4) were resuspended in 100 μL of 1× Krebs-Ringer phosphate glucose (KRPG) buffer containing various concentrations of GKT137831 or test compounds and incubated at 37° C. for 30 min. Cells were mixed with 100 μL of Amplex Red reagent solution containing 50 μM Amplex Red and 0.1 units/mL of HRP in KRPG buffer; each assay condition was evaluated induplicate. The samples were incubated at 37° C. for 90 mins in the dark, and then centrifuged at 2,500 g for 5 mins. The supernatants were loaded to a 96 well plate, and then measured using a SpectraMax i3 Multiplate reader (Molecular Devices, Sunnyvale, Calif., USA) at 530 nm excitation and 590 nm emission respectively. DMSO and GKT137831 wells were applied as negative and positive controls, and the activities measured were set to 0 and 100, respectively.

NOX2 = target: T3, NOX2 (Homo sapiens, UniProt P04839); experiment: NOX2 HL60 cell-based assay (PMA oxidative burst, L012 chemiluminescence); settings: DMSO-differentiated HL-60 cells, PMA-stimulated; for inhibition at 1 µM: HL-60, 1000 nM; for inhibition at 0.1 µM: HL-60, 100 nM
T3 construct: HL-60 cells, rich in NOX2 expression; endogenous in cells; host or cells: DMSO-differentiated HL-60
T3 sequence (P04839 2-570 limits assumed): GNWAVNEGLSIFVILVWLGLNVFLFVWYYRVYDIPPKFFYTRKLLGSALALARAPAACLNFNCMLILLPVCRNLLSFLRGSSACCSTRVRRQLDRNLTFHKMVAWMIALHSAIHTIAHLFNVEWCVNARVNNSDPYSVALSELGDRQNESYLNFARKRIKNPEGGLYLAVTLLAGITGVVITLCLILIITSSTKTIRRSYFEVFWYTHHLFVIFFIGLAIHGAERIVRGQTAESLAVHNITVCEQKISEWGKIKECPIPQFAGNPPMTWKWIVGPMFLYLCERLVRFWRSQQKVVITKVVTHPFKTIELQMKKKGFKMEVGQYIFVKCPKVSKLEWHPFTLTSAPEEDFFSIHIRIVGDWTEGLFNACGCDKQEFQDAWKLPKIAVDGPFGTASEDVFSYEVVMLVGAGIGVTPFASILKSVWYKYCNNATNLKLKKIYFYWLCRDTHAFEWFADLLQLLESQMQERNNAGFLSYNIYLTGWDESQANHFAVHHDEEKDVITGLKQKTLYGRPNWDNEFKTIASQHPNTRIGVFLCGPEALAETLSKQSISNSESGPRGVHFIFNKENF
T3 sequence (P13498 2-195 partner limits assumed): T1 sequence (P13498 2-195 partner limits assumed)
Procedure: NOX2 HL60 Cell-Based Assay:
HL-60 cells, rich in NOX2 expression, was stimulated to undergo oxidative burst by phorbol myristate acetate (PMA). The ROS produced during this process was measured using the O2^−-specific chemiluminescent probe L012. L012 was added to DMSO-differentiated HL-60 cell suspensions to a final concentration of 100 μM. Then, 80 μL aliquots of cell suspension (2.5×10^5 cells) were transferred to individual wells of a 96-well plate. Test compounds were directly added to the wells at the specified concentrations. Following a 30-60 mins incubation at 37° C. in the dark, the oxidative burst was initiated by the addition of 10 ng/mL PMA, and the chemiluminescence signal was recorded every 5 min over a period of 60 mins in a SpectraMax i3 Multiplate reader (Molecular Devices, Sunnyvale, Calif., USA). • NOX4 HEK293 Overexpression Cell-Based Assay: […]

COc1cc2[nH]c(-c3ccccc3F)c(O)c(=O)c2cc1OC [Compound 18]
inhibition at 0.1 µM (NOX1; 100 nM): ≥ 80%
inhibition at 1 µM (NOX1; 1000 nM): ≥ 80%
% Inhibition NOX4 (NOX4; 100 nM): C (the percent of inhibition of NOX by the compounds ranges from 2000 to 49%)
inhibition at 1 µM (NOX4): 50 to 79%
% Inhibition NOX2 (NOX2; 100 nM): C (the percent of inhibition of NOX by the compounds ranges from 2000 to 49%)
inhibition at 1 µM (NOX2): 50 to 79%

COc1cc2[nH]c(-c3ccc(N4CCCC4)cc3)c(O)c(=O)c2cc1OC [Compound 11]
inhibition at 0.1 µM (NOX1; 100 nM): ≤ 19%
inhibition at 1 µM (NOX1; 1000 nM): 50 to 79%
% Inhibition NOX4 (NOX4; 100 nM): C (the percent of inhibition of NOX by the compounds ranges from 2000 to 49%)
inhibition at 1 µM (NOX4): ≥ 80%
inhibition at 0.1 µM (NOX2): ≤ 19%
inhibition at 1 µM (NOX2): ≤ 19%

COc1cc2[nH]c(-c3ccccc3OC(F)(F)F)c(O)c(=O)c2cc1OC [Compound 20]
inhibition at 0.1 µM (NOX1; 100 nM): ≥ 80%
inhibition at 1 µM (NOX1; 1000 nM): ≥ 80%
% Inhibition NOX4 (NOX4; 100 nM): C (the percent of inhibition of NOX by the compounds ranges from 2000 to 49%)
% Inhibition NOX4 (NOX4; 1000 nM, 1 µM): B (the percent of inhibition of NOX by the compounds ranges from 50% o to 79% o)
% Inhibition NOX2 (NOX2; 1000 nM, 1 µM): A (the percent of inhibition of NOX by the compounds is larger than or equals to 80%)
inhibition at 0.1 µM (NOX2): 50 to 79%

COc1cc2[nH]c(-c3ccccc3C(F)(F)F)c(O)c(=O)c2cc1OC [Compound 43, 3-hydroxy-6,7-dimethoxy-2-(2-(trifluoromethyl)phenyl)quinolin-4(1H)-one acetate]
% Inhibition NOX1 (NOX1; 100 nM): A (the percent of inhibition of NOX by the compounds is larger than or equals to 80%)
% Inhibition NOX1 (NOX1; 1000 nM): A (the percent of inhibition of NOX by the compounds is larger than or equals to 80%)
% Inhibition NOX4 (NOX4; 100 nM): B (the percent of inhibition of NOX by the compounds ranges from 50% o to 79% o)
% Inhibition NOX4 (NOX4; 1000 nM): B (the percent of inhibition of NOX by the compounds ranges from 50% o to 79% o)
% Inhibition NOX2 (NOX2; 100 nM, acetate, 0.1 µM): B (the percent of inhibition of NOX by the compounds ranges from 50% o to 79% o)
% Inhibition NOX2 (NOX2; 1000 nM, acetate, 1 µM): A (the percent of inhibition of NOX by the compounds is larger than or equals to 80%)

COc1cc(Br)c(-c2[nH]c3cc(OC)c(OC)cc3c(=O)c2O)c(OC)c1 [Compound 27]
inhibition at 0.1 µM (NOX1; 100 nM): ≥ 80%
inhibition at 1 µM (NOX1; 1000 nM): ≥ 80%
% Inhibition NOX4 (NOX4; 100 nM): C (the percent of inhibition of NOX by the compounds ranges from 2000 to 49%)
inhibition at 1 µM (NOX4): ≥ 80%
inhibition at 0.1 µM (NOX2): ≤ 19%
inhibition at 1 µM (NOX2): ≥ 80%

COc1ccccc1-c1[nH]c2cccc(Br)c2c(=O)c1O [Compound 25]
inhibition at 0.1 µM (NOX1; 100 nM): 50 to 79%
inhibition at 1 µM (NOX1; 1000 nM): ≥ 80%
% Inhibition NOX4 (NOX4; 1000 nM): C (the percent of inhibition of NOX by the compounds ranges from 2000 to 49%)
inhibition at 0.1 µM (NOX4): ≤ 19%
inhibition at 0.1 µM (NOX2): ≤ 19%
inhibition at 1 µM (NOX2): 50 to 79%

COc1cc2[nH]c(-c3ccccc3Cl)c(O)c(=O)c2cc1OC [Compound 9]
inhibition at 0.1 µM (NOX1; 100 nM): ≥ 80%
inhibition at 1 µM (NOX1; 1000 nM): ≥ 80%
% Inhibition NOX4 (NOX4; 1000 nM, 1 µM): A (the percent of inhibition of NOX by the compounds is larger than or equals to 80%)
inhibition at 0.1 µM (NOX4): 50 to 79%
inhibition at 0.1 µM (NOX2): ≤ 19%
inhibition at 1 µM (NOX2): ≥ 80%

COc1ccc(C(=O)COC(=O)c2ccc3c(=O)c(O)c(-c4ccc(OC)cc4)[nH]c3c2)cc1 [Compound 32, 2-(4-methoxyphenyl)-2-oxoethyl 3-hydroxy-2-(4-methoxyphenyl)-4-oxo-1,4-dihydroquinoline-7-carboxylate 2,2,2-trifluoroacetate]
inhibition at 0.1 µM (NOX1; 100 nM): ≤ 19%
inhibition at 1 µM (NOX1; 1000 nM): 50 to 79%
% Inhibition NOX4 (NOX4; 1000 nM): C (the percent of inhibition of NOX by the compounds ranges from 2000 to 49%)
inhibition at 0.1 µM (NOX4): ≤ 19%
% Inhibition NOX2 (NOX2; 100 nM): C (the percent of inhibition of NOX by the compounds ranges from 2000 to 49%)
% Inhibition NOX2 (NOX2; 1000 nM): C (the percent of inhibition of NOX by the compounds ranges from 2000 to 49%)
